Data: the NIST ThermoML archive (doi:10.1021/je060271a)

Conditions: 303.15 K, Liquid, Vibrating tube method

CCCCCCC(=O)OCC(COC(=O)CCCCCC)(COC(=O)CCCCCC)COC(=O)CCCCCC [pentaerythritol tetraheptanoate]
Conditions	mass density [kg/m3]
21619 kPa	983.7
21662 kPa	983.7
21713 kPa	983.7
21752 kPa	983.7
21789 kPa	983.5
21831 kPa	983.9
21867 kPa	983.8
21902 kPa	983.8
22017 kPa	983.9
22097 kPa	984
22133 kPa	983.9
22169 kPa	984.1
22213 kPa	984
22250 kPa	983.9
22286 kPa	984.1
22330 kPa	984.1
22368 kPa	984.2
22406 kPa	984.1
22450 kPa	984.2
22567 kPa	984.2
22651 kPa	984.2
22689 kPa	984.3
22735 kPa	984.3
22774 kPa	984.3
22813 kPa	984.3
22853 kPa	984.3
22901 kPa	984.4
23031 kPa	984.5
23066 kPa	984.4
23098 kPa	984.5
23130 kPa	984.5
23162 kPa	984.4
23201 kPa	984.5
23233 kPa	984.6
23266 kPa	984.7
23304 kPa	984.6
23337 kPa	984.5
23376 kPa	984.7
23409 kPa	984.6
23442 kPa	984.6
23475 kPa	984.8
23516 kPa	984.8
23549 kPa	984.7
23582 kPa	984.8
23622 kPa	984.7
23797 kPa	984.9
23831 kPa	985
23873 kPa	984.9
23908 kPa	985
23943 kPa	985
23985 kPa	985
24019 kPa	984.9
24054 kPa	985
24201 kPa	985.1
24243 kPa	985.2
24278 kPa	985.2
24320 kPa	985.2
24392 kPa	985.2
24436 kPa	985.2
24472 kPa	985.4
24509 kPa	985.1
24545 kPa	985.2
24588 kPa	985.3
24624 kPa	985.4
24661 kPa	985.3
24706 kPa	985.3
24743 kPa	985.5
24780 kPa	985.5
24825 kPa	985.4
24863 kPa	985.4
24901 kPa	985.4
24947 kPa	985.5
24984 kPa	985.5
25022 kPa	985.6
25060 kPa	985.5
25106 kPa	985.6
25144 kPa	985.5
25182 kPa	985.7
25228 kPa	985.7
25267 kPa	985.6
25306 kPa	985.6
25353 kPa	985.7
25392 kPa	985.7
25431 kPa	985.8
25472 kPa	985.7
25520 kPa	985.8
25560 kPa	986
25601 kPa	986
25648 kPa	985.9
25688 kPa	985.8
25729 kPa	985.9
25778 kPa	985.9
25818 kPa	986
25860 kPa	986
25901 kPa	986.1
25951 kPa	986
25994 kPa	986
26038 kPa	986
26079 kPa	986.1
26130 kPa	986.1
26172 kPa	986.2
26215 kPa	986.2
26266 kPa	986.2
26309 kPa	986.3
26347 kPa	986.3
26391 kPa	986.3
26429 kPa	986.4
26466 kPa	986.4
26512 kPa	986.4
26551 kPa	986.4
26590 kPa	986.3
26628 kPa	986.5
